Data set [1] relates to RAW264.7. Briefly: Inhibition of LPS-induced NO production in mouse RAW264.7 cells preincubated for 2 hrs followed by LPS addition and measured after 24 hrs by Griess assay relative to control. In kind it is functional, cell-based. In general terms: The Griess reaction detects nitrite, a stable product of nitric oxide.
For data set [2], the system named is RAW264.7. Description: Inhibition of LPS-induced NO production in mouse RAW264.7 cells at 20 uM preincubated for 2 hrs followed by LPS addition and measured after 24 hrs by Griess assay relative to control. The format is functional. As to conditions: time 26 hrs.
Data set [3] is described as follows: Cytotoxicity against mouse RAW264.7 cells assessed as inhibition of cell viability at 20 uM by MTT assay relative to control. In kind it is toxicity, cell-based. The note with it: read-out: INH.
Data set [4] can be described thus: Cytotoxicity against mouse RAW264.7 cells assessed as inhibition of cell viability by MTT assay relative to control. In kind it is toxicity, cell-based. In general terms: Tetrazolium dyes change colour on reduction, which living cells bring about.
Data set [5] has as its system Mus musculus. Description: Antiinflammatory activity against MC093-induced atopic dermatitis BALB/c mouse model assessed as reduction in inflammatory cell infiltration in ear administered starting from day 4 to 10 after MC093-stimulation by H and E staining assay. The format is functional, organism-based.
Data set [6] relates to Mus musculus. Description: Antiinflammatory activity against MC093-induced atopic dermatitis BALB/c mouse model assessed as reduction in epidermal thickness of ear administered starting from day 4 to 10 after MC093-stimulation by H and E staining assay. The format is functional, organism-based.

Calls of active or inactive are those of the source. The rule behind the calls is not given here.

Take `C=C1CC[C@H]2C(=C)CC[C@H]3C(CNCCNCc4cc([N+](=O)[O-])ccc4O)C(=O)O[C@@H]3[C@@H]12` (stereo not given in full): the values for the half-inhibitory concentration (IC50) (in the data set on RAW264.7 [1]; in data set [4]) were 10.2 µM and greater than 40 µM, respectively. In addition, the inhibition (commonly the change of the read-out against control, counted positive when it falls) at 20 µM in the data set with RAW264.7 [2] came out at 68.4%. Also, the cytotoxicity at 20 µM in data set [3] was 24.7%.
Regarding `C=C1CC[C@H]2C(=C)CC[C@H]3C(CN(CCNS(=O)(=O)c4ccc(F)cc4)S(=O)(=O)c4ccc(F)cc4)C(=O)O[C@@H]3[C@@H]12` (stereo not given in full), the IC50 (usually the point on the concentration scale where inhibition reaches its midpoint) in the data set with RAW264.7 [1] is 15.2 µM; in data set [4], greater than 40 µM. Testing at 20 µM in the data set on RAW264.7 [2] gave an inhibition of 75.1%. Further, the cytotoxicity at 20 µM in data set [3] came out at 9.81%.
For `C=C1CC[C@H]2C(=C)CC[C@H]3C(CN(CCNS(=O)(=O)c4ccc5ccccc5c4)S(=O)(=O)c4ccc5ccccc5c4)C(=O)O[C@@H]3[C@@H]12` (stereo not given in full), the half-inhibitory concentration (IC50) with RAW264.7 [1] was 16.6 µM; in data set [4] it was greater than 40 µM. In addition, at 20 µM the inhibition with RAW264.7 [2] was 76.8%. Further, in data set [3], the cytotoxicity at 20 µM was determined as 8.58%.
For `C=C1CC[C@H]2C(=C)CC[C@H]3C(CN(CCNS(=O)(=O)c4ccc(C)cc4)S(=O)(=O)c4ccc(C)cc4)C(=O)O[C@@H]3[C@@H]12` (stereo not given in full), in that order: 7.72 µM, greater than 40 µM, 82.5% and 14.8%.
As for `C=C1CC[C@H]2C(=C)CC[C@H]3C(CNCCNCc4cc(Cl)cc(Cl)c4O)C(=O)O[C@@H]3[C@@H]12` (stereo not given in full), the IC50 with RAW264.7 [1] was 19.4 µM; in data set [4], greater than 40 µM. Also, the inhibition at 20 µM in the data set with RAW264.7 [2] worked out at 51.5%. In addition, the cytotoxicity at 20 µM in data set [3] is 8.94%.
For `C=C1CC[C@H]2C(=C)CC[C@H]3C(=C)C(=O)O[C@@H]3[C@@H]12` [DEHYDROCOSTUSLACTONE], in that order: 21.5 µM, greater than 40 µM, 40.3% and 17.3%.
As to `C=C1CC[C@H]2C(=C)CC[C@H]3C(CNCCNS(=O)(=O)C4CC4)C(=O)O[C@@H]3[C@@H]12` (stereo not given in full), the concentration for half-maximal inhibition (IC50) was 5.13 µM in the data set with RAW264.7 [1] and greater than 40 µM in data set [4]. For the same compound, the inhibition at 20 µM with RAW264.7 [2] was determined as 85.4%. In addition, the cytotoxicity at 20 µM in data set [3] stood at 12.2%.
For `C=C1CC[C@H]2C(=C)CC[C@H]3C(CN(CCNS(=O)(=O)c4ccc(C(C)(C)C)cc4)S(=O)(=O)c4ccc(C(C)(C)C)cc4)C(=O)O[C@@H]3[C@@H]12` (stereo not given in full), in that order: 6.31 µM, greater than 40 µM, 81.2% and 9.88%.
`C=C1CC[C@H]2C(=C)CC[C@H]3C(CNCCNCc4cc(Cl)ccc4O)C(=O)O[C@@H]3[C@@H]12` (stereo not given in full): 20 µM produced 34.1% inhibition in the data set on RAW264.7 [2]. For the same compound, in data set [3], the cytotoxicity at 20 µM was found to be 16.7%.
Turning to `C[C@@H]1C[C@H]2[C@@H]3CCC4=CC(=O)C=C[C@]4(C)[C@@]3(F)[C@@H](O)C[C@]2(C)[C@@]1(O)C(=O)CO` [DEXAMETHASONE], the IC50 is 11 µM with RAW264.7 [1] and greater than 40 µM in data set [4]. Besides, the result in the data set with Mus musculus [5] and in the data set on Mus musculus [6] was Active.
In the data set with RAW264.7 [2], `C=C1CC[C@H]2C(=C)CC[C@H]3C(CNCCNCc4cc(Br)ccc4O)C(=O)O[C@@H]3[C@@H]12` (stereo not given in full) gave an inhibition at 20 µM of 23.5%. The cytotoxicity at 20 µM in data set [3] is -2.07%.
`C=C1CC[C@H]2C(=C)CC[C@H]3C(CN(CCNS(=O)(=O)c4ccc(OC(F)(F)F)cc4)S(=O)(=O)c4ccc(OC(F)(F)F)cc4)C(=O)O[C@@H]3[C@@H]12` (stereo not given in full): the IC50 is 4.26 µM with RAW264.7 [1] and greater than 40 µM in data set [4]. The compound further registered an inhibition at 20 µM with RAW264.7 [2] of 84%. Moreover, the cytotoxicity at 20 µM in data set [3] is 13.6%.
Taken in the same sequence, the figures for `C=C1CC[C@H]2C(=C)CC[C@H]3C(CN(CCNS(=O)(=O)c4cc(Cl)c(F)cc4F)S(=O)(=O)c4cc(Cl)c(F)cc4F)C(=O)O[C@@H]3[C@@H]12` (stereo not given in full) were 12.9 µM, greater than 40 µM, 68.1% and 10.4%.
Compound `C=C1CC[C@H]2C(=C)CC[C@H]3C(CN(CCNS(=O)(=O)c4cccc(Cl)c4F)S(=O)(=O)c4cccc(Cl)c4F)C(=O)O[C@@H]3[C@@H]12` (stereo not given in full) had an inhibition at 20 µM in the data set on RAW264.7 [2] of 48.1%. Further, the cytotoxicity at 20 µM in data set [3] turned out to be 1.67%.

Source of the values: ChEMBL document CHEMBL5584329, “Development of new dehydrocostuslactone derivatives for treatment of atopic dermatitis via inhibition of the NF-κB signaling pathway” (RSC Med Chem, 2024).
